According to ChEMBL document CHEMBL1134706, “Novel cytotoxic 7-iminomethyl and 7-aminomethyl derivatives of camptothecin” (Bioorg Med Chem Lett, 2001):

Key:
[1] = Partition coefficient (logP); type: physicochemical; conditions: octanol/water
NCI-H460 = experiment: In vitro cytotoxicity against H460 a human non-small lung carcinoma cell line after 1 hour drug exposure; type: functional, cell-based; conditions: NCI-H460, 1 h
[2] = In vivo antitumor activity in NSCLC H460 xenografted sc in athymic nude mice expressed as percent tumor volume inhibition (TVI) at a dose of 2 mg/kg perorally for q4dx4; type: functional, Mus musculus; conditions: route oral
[3] = In vivo antitumor activity in NSCLC H460 xenografted sc in athymic nude mice expressed as percent Tumor volume inhibition (TVI) at a dose of 18 mg/kg perorally for q4dx4; type: functional, Mus musculus; conditions: route oral
[4] = In vivo antitumor activity in NSCLC H460 xenografted sc in athymic nude mice expressed as percent Tumor volume inhibition (TVI) at a dose of 6 mg/kg perorally for q4dx4; type: functional, Mus musculus; conditions: route oral
[5] = In vivo antitumor activity in NSCLC H460 xenografted sc in athymic nude mice expressed as percent Body weight loss (BWL) at a dose of 2 mg/kg orally for q4dx4; type: functional, Mus musculus; conditions: route oral
[6] = In vivo antitumor activity in NSCLC H460 xenografted sc in athymic nude mice expressed as percent Body weight loss (BWL) at a dose of 6 mg/kg orally for q4dx4; type: functional, Mus musculus; conditions: route oral
[7] = In vivo antitumor activity in NSCLC H460 xenografted sc in athymic nude mice expressed as percent Body weight loss (BWL) at a dose of 18 mg/kg orally for q4dx4; type: functional, Mus musculus; conditions: route oral
[8] = In vivo antitumor activity in NSCLC H460 xenografted sc in athymic nude mice expressed as percent Body weight loss (BWL) at a dose of 15 mg/kg orally for q4dx4; type: functional, Mus musculus; conditions: route oral
[9] = In vivo antitumor activity in NSCLC H460 xenografted sc in athymic nude mice expressed as percent tumor volume inhibition (TVI) at a dose of 15 mg/kg perorally for q4dx4; type: functional, Mus musculus; conditions: route oral

CC[C@@]1(O)C(=O)OCc2c1cc1n(c2=O)Cc2c-1nc1ccccc1c2CNc1ccccc1
logP [1]: 2.56 | IC50 (NCI-H460): 310 nM

CC[C@@]1(O)C(=O)OCc2c1cc1n(c2=O)Cc2c-1nc1ccccc1c2/C=N/CCN(C)C
logP [1]: 1.53 | IC50 (NCI-H460): 120 nM

CC[C@@]1(O)C(=O)OCc2c1cc1n(c2=O)Cc2c-1nc1ccccc1c2/C=N/c1ccc([N+](=O)[O-])cc1
logP [1]: 2.34 | IC50 (NCI-H460): 280 nM

CC[C@@]1(O)C(=O)OCc2c1cc1n(c2=O)Cc2c-1nc1ccccc1c2/C=N/Cc1ccccc1
logP [1]: 3.26 | IC50 (NCI-H460): 280 nM

CC[C@@]1(O)C(=O)OCc2c1cc1n(c2=O)Cc2c-1nc1ccccc1c2/C=N/N=C(N)N
logP [1]: 0.67 | IC50 (NCI-H460): 39300 nM

CC[C@@]1(O)C(=O)OCc2c1cc1n(c2=O)Cc2c-1nc1ccccc1c2/C=N/C1CCCCC1
logP [1]: 3.08 | IC50 (NCI-H460): 370 nM

CC[C@@]1(O)C(=O)OCc2c1cc1n(c2=O)Cc2c-1nc1ccccc1c2CNC1CCCCC1
logP [1]: 2.44 | IC50 (NCI-H460): 350 nM

CC[C@@]1(O)C(=O)OCc2c1cc1n(c2=O)Cc2c-1nc1ccccc1c2CN
logP [1]: 0.37 | IC50 (NCI-H460): 2370 nM

CC[C@@]1(O)C(=O)OCc2c1cc1n(c2=O)Cc2c-1nc1ccccc1c2CN=C(N)N
logP [1]: -0.79 | IC50 (NCI-H460): 12600 nM

CC[C@@]1(O)C(=O)OCc2c1cc1n(c2=O)Cc2c-1nc1ccccc1c2CNCCN(C)C
logP [1]: 0.89 | IC50 (NCI-H460): 450 nM

CC[C@@]1(O)C(=O)OCc2c1cc1n(c2=O)Cc2c-1nc1ccccc1c2/C=N/CCCCO
logP [1]: 1.57 | IC50 (NCI-H460): 360 nM

CC[C@@]1(O)C(=O)OCc2c1cc1n(c2=O)Cc2c-1nc1ccccc1c2/C=N/c1ccccc1
TVI [2]: 33% | TVI [3]: 89% | TVI [4]: 51% | BWL [5]: 2% | BWL [6]: 7% | logP [1]: 3.19 | BWL [7]: 1% | IC50 (NCI-H460): 130 nM

CC[C@@]1(O)C(=O)OCc2c1cc1n(c2=O)Cc2cc3c(CN(C)C)c(O)ccc3nc2-1 [TOPOTECAN]
BWL [8]: 12% | TVI [9]: 95% | IC50 (NCI-H460): 1380 nM
